Experimental data as given in ChEMBL document CHEMBL1128782, “Nucleosides and nucleotides. 142. an alternative synthesis of and its antiviral activity” (Bioorg Med Chem Lett, 1995).
In brackets after ≈: the same amount, converted by molar mass.

Legend:
[1] = test system: Vesicular stomatitis virus; assay: Effective dose required for plaque reduction in vesicular stomatitis virus (VSV) was determined; format: functional, organism-based
Influenza B virus [2] = assay: Effective dose required to reduce virus induced cytopathogenicity by Influenza B(singapore) was determined; format: functional, organism-based
Influenza B virus [3] = assay: Effective dose required to reduce virus induced cytopathogenicity by Influenza B(Fu 207) was determined; format: functional, organism-based
Influenza A virus = assay: Effective dose required to reduce virus induced cytopathogenicity by Influenza A(H1N1,Fu 88) was determined; format: functional, organism-based
Human betaherpesvirus 5 = assay: Effective dose required for plaque reduction in human cytomegalovirus (HCMV) was determined; format: functional, organism-based
Influenza B virus [4] = assay: Effective dose required to reduce virus induced cytopathogenicity by Influenza B (Fu 207) was determined; format: functional, organism-based
[5] = Evaluated for time-dependent and irreversible inhibitor of bovine S-adenosyl-L-homocysteine; parameters: species or system Bos taurus

Row | SMILES | EC50 [1] [mg/L] | EC50 (Influenza B virus [2]) [mg/L] | EC50 (Influenza B virus [3]) [mg/L] | EC50 (Influenza A virus) [mg/L] | EC50 (Human betaherpesvirus 5) [mg/L] | EC50 (Influenza B virus [4]) [mg/L] | Ki [5] [µM]
1 | Nc1ncnc2c1ncn2[C@@H]1C=C(CO)[C@@H](O)[C@H]1O [NEOPLANOCIN A] | 0.38 (≈ 1.44 µM) | > 20 | > 20 | > 20 | 0.2 (≈ 0.76 µM) | – | –
2 | Nc1ncnc2c1ncn2C1O[C@H](C=C(Br)Br)[C@@H](O)[C@H]1O (some centres not stated) | > 10 | – | – | – | > 10 | 32 (≈ 76 µM) | –
3 | NC(=O)c1ncn([C@@H]2O[C@H](CO)[C@@H](O)[C@H]2O)n1 [RIBAVIRIN] | > 10 | 6.7 (≈ 27.4 µM) | 36.9 (≈ 151 µM) | 19.6 (≈ 80.3 µM) | > 10 | – | –
4 | N#C[C@H]1OC(n2cnc3c(N)ncnc32)[C@H](O)[C@@H]1O (some centres not stated) | 1.2 (≈ 4.58 µM) | – | 10 (≈ 38.1 µM) | – | 1.4 (≈ 5.34 µM) | – | –
5 | C#C[C@H]1OC(n2cnc3c(N)ncnc32)[C@H](O)[C@@H]1O (some centres not stated) | 0.14 (≈ 0.536 µM) | 0.9 (≈ 3.45 µM) | 1.8 (≈ 6.89 µM) | 0.38 (≈ 1.45 µM) | 8.2 (≈ 31.4 µM) | – | 0.173
